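Cells were grown in 96-well plates and exposed to each compound for 48 hours at five concentrations; endpoints were interpolated linearly between bracketing concentrations, or set to the highest concentration if not reached. Here, GI50 denotes the concentration required for 50% inhibition of growth.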 Calls of active or inactive are those of the source. Cut-off read from the data, not from the text of the source: active = GI50 up to about 1.1 µM and inactive = higher.
How the values were obtained:
Experiment in all cases: NCI anticancer screen, dose series, 48 h
[1] = system: OVCAR-4
[2] = system: SK-MEL-2
[3] = system: SF-268
[4] = system: SF-295
[5] = system: UACC-62
[6] = system: ACHN
[7] = system: SK-OV-3
[8] = system: DU-145
[9] = system: MDA-MB-435
[10] = system: SK-MEL-5
[11] = system: EKVX
[12] = system: KM12
[13] = system: IGROV-1
[14] = system: SNB-75
[15] = system: Hs-578T
[16] = system: Malme-3M
[17] = system: 786-0
[18] = system: MDA-MB-231
[19] = system: MOLT-4
[20] = system: HL-60

| SMILES | GI50 [1] | GI50 [2] | GI50 [3] | GI50 [4] | GI50 [5] | GI50 [6] | GI50 [7] | GI50 [8] | GI50 [9] | GI50 [10] | GI50 [11] | GI50 [12] | GI50 [13] | GI50 [14] | GI50 [15] | GI50 [16] | GI50 [17] | GI50 [18] | GI50 [19] | GI50 [20] |
| --- | --- | --- | --- | --- | --- | --- | --- | --- | --- | --- | --- | --- | --- | --- | --- | --- | --- | --- | --- | --- |
| Cc1sc(Nc2ccc(Nc3nc(-c4ccccc4)c(C)s3)cc2)nc1-c1ccccc1 | > 100 µM (inactive) | 21.7 µM (inactive) | > 100 µM (inactive) | 95.9 µM (inactive) | 54.3 µM (inactive) | 36.5 µM (inactive) | > 100 µM (inactive) | 74 µM (inactive) | > 100 µM (inactive) | 22.6 µM (inactive) | > 100 µM (inactive) | > 100 µM (inactive) | > 100 µM (inactive) | 48.4 µM (inactive) | > 100 µM (inactive) | > 100 µM (inactive) | 21.2 µM (inactive) | 42 µM (inactive) | 17.1 µM (inactive) |  |
| CSc1nc(O)c(C#N)c(-c2ccccc2)n1 | > 100 µM (inactive) | > 100 µM (inactive) | > 100 µM (inactive) | > 100 µM (inactive) | > 100 µM (inactive) | > 100 µM (inactive) | > 100 µM (inactive) | > 100 µM (inactive) | > 100 µM (inactive) | > 100 µM (inactive) | > 100 µM (inactive) | > 100 µM (inactive) | > 100 µM (inactive) | > 100 µM (inactive) | > 100 µM (inactive) |  | > 100 µM (inactive) | > 100 µM (inactive) | > 100 µM (inactive) | > 100 µM (inactive) |
| COC(=O)CCSC1=CC(=O)c2nc3ccccc3c3ccnc1c23 | 19.8 µM (inactive) | 23.2 µM (inactive) | 15.1 µM (inactive) | 58.7 µM (inactive) | 8.09 µM (inactive) | 19.4 µM (inactive) | 54.3 µM (inactive) | 22.2 µM (inactive) | 7.4 µM (inactive) | 18.8 µM (inactive) | 18.9 µM (inactive) | 16.2 µM (inactive) | 16.7 µM (inactive) | > 100 µM (inactive) | 23.4 µM (inactive) |  | 19.9 µM (inactive) | 27.5 µM (inactive) | 9.95 µM (inactive) | 3.61 µM (inactive) |
| CNC(=O)OCc1c2ccncc2c(C)c2c1[nH]c1ccccc12 | 0.271 µM (active) | 0.261 µM (active) | 0.272 µM (active) | 0.292 µM (active) | 0.238 µM (active) | 0.0841 µM (active) | 0.288 µM (active) | 0.269 µM (active) | 0.421 µM (active) | 0.242 µM (active) | 0.372 µM (active) | 0.449 µM (active) | 0.182 µM (active) | 0.21 µM (active) | 0.413 µM (active) | 0.372 µM (active) | 0.262 µM (active) | 0.48 µM (active) | 0.0659 µM (active) |  |
| O=c1n(/N=C/c2ccccc2)c(=O)n2n1C1C=CC2CC1 |  | > 100 µM (inactive) | > 100 µM (inactive) | > 100 µM (inactive) | > 100 µM (inactive) | > 100 µM (inactive) | > 100 µM (inactive) | > 100 µM (inactive) | > 100 µM (inactive) | > 100 µM (inactive) | > 100 µM (inactive) | > 100 µM (inactive) | > 100 µM (inactive) | > 100 µM (inactive) | > 100 µM (inactive) |  | > 100 µM (inactive) | > 100 µM (inactive) | > 100 µM (inactive) | > 100 µM (inactive) |
| Oc1ccc2ccccc2c1/C=N/Cc1c(O)ccc2ccccc12 | > 100 µM (inactive) | 71.8 µM (inactive) | 37.2 µM (inactive) | 39.5 µM (inactive) | 45.1 µM (inactive) | 28.4 µM (inactive) | > 100 µM (inactive) | 41.4 µM (inactive) | 77.6 µM (inactive) | 71.9 µM (inactive) | 7.71 µM (inactive) | 55.2 µM (inactive) | 35.6 µM (inactive) | 37.9 µM (inactive) | 69 µM (inactive) | 43.2 µM (inactive) | 47.2 µM (inactive) | 82.4 µM (inactive) | 13.2 µM (inactive) |  |
| CC1(C)S[C@@H]2[C@H](NC(=O)[C@H](N)c3ccccc3)C(=O)N2[C@H]1C(=O)O [AMPICILLIN] |  | > 100 µM (inactive) | > 100 µM (inactive) | > 100 µM (inactive) | > 100 µM (inactive) | > 100 µM (inactive) |  | > 100 µM (inactive) | > 100 µM (inactive) | > 100 µM (inactive) | > 100 µM (inactive) | > 100 µM (inactive) | > 100 µM (inactive) | > 100 µM (inactive) | 63.8 µM (inactive) |  | > 100 µM (inactive) | > 100 µM (inactive) | > 100 µM (inactive) | > 100 µM (inactive) |

From ChEMBL document CHEMBL1201862, “PubChem BioAssay data set” (2004)
